This passage reports IC50 and inhibition results from patent US7951832B2, “Pyrazole derivatives as kinase inhibitors” (Burnham Institute for Medical Research, priority 2007, dated 2011).

The first test deals with PI3 K P110α (Homo sapiens, UniProt P42336). Description: Inhibition of PI3K (P110α). It is filed as biochemical. The settings on record: values printed without % sign, read as IC50, read-out: PI3 K (% at 25 μM, or IC50), P110α.
PI3 K P110α, sequence (P42336 whole entry): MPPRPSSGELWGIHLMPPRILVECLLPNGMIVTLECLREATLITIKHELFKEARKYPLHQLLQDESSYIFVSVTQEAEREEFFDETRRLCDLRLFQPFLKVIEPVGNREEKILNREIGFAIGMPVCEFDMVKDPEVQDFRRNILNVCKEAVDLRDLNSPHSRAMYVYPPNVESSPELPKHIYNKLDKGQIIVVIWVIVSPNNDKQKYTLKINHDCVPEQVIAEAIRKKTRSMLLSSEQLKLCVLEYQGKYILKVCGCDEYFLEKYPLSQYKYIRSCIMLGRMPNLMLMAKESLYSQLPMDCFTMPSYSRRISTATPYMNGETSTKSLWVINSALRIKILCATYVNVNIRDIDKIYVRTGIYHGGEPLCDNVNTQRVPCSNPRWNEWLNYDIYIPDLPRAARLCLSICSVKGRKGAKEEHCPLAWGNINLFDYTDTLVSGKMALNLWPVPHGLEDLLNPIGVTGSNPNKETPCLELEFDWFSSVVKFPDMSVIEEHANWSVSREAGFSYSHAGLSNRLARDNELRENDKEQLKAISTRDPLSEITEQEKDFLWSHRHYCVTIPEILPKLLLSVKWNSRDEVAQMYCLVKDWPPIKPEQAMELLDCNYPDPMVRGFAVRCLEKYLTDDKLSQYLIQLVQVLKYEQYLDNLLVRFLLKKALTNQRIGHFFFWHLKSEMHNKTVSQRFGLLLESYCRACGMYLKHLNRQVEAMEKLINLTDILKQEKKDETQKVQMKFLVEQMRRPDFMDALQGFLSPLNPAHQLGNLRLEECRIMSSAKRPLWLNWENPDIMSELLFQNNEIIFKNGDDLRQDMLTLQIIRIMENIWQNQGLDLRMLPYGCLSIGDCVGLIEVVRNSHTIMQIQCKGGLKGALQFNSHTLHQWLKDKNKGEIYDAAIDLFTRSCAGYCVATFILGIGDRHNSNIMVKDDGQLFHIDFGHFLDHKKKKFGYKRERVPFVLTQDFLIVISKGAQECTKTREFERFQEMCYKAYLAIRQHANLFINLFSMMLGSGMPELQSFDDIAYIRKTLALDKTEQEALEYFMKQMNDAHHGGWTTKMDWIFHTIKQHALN
PI3 K P110α, sequence (P27986 whole entry partner): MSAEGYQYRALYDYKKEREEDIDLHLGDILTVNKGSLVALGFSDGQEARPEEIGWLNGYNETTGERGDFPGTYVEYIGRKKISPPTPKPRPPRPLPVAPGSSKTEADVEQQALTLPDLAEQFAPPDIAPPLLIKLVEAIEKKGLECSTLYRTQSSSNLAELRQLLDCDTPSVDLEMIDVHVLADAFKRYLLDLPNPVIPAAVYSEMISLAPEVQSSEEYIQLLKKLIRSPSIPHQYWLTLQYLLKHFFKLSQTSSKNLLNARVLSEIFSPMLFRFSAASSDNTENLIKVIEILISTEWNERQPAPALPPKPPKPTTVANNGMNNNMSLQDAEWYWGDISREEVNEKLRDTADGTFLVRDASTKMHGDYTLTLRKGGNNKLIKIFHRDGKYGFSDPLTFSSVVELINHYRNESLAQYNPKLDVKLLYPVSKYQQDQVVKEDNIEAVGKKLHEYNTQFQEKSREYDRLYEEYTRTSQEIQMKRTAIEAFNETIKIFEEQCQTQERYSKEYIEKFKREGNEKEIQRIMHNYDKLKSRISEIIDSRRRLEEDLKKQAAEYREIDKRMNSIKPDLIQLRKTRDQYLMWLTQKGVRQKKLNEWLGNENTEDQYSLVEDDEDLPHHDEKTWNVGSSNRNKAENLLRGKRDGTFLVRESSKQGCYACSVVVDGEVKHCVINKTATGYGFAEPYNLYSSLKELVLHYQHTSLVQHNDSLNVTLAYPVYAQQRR
The term IC50 denotes the concentration at which inhibition is half-maximal. On to `COc1ccc(C(NC(=O)c2ccc3c(C#Cc4cncn4C)n[nH]c3c2)c2ccncc2)cc1` (stereo not shown), for which the IC50 is 82 nM.
On the same count and under the same terms, for `Cn1cncc1C#Cc1n[nH]c2ccccc12` the value was 62 nM; for `Nc1ccc(C#Cc2n[nH]c3ccccc23)cc1`, 83 nM.

A further test addresses mTOR (Homo sapiens, UniProt P42345). Description: Inhibition of mTOR. The format is biochemical. The conditions noted are these: IC50.
Regarding `Cn1cncc1C#Cc1n[nH]c2ccccc12`, the IC50 was more than 100000 nM.
The same measure, in the same setting: the result for `O=C(O)c1ccc(C#Cc2n[nH]c3ccccc23)cc1` reads 31000 nM.

Still in this test, the particulars now being: read-out: mTOR (Inhibition % at 50 μM, or IC50); inhibition at 50 μM.
By inhibition is commonly meant the drop in the measured response relative to a control, in per cent. `Cn1cncc1C#Cc1n[nH]c2cc(C(=O)NCc3ccco3)ccc12`: the inhibition at 50 µM is -5%.
Same read-out and setting: for `Cn1cncc1C#Cc1n[nH]c2cc(C(=O)NC(c3ccncc3)c3ccc(Cl)cc3)ccc12` (stereo not shown) the value was -27%.
The same measure, in the same setting: for `COc1ccc(C#Cc2n[nH]c3ccccc23)cc1` the value was 5%; for `Nc1cccc(C#Cc2n[nH]c3ccccc23)c1`, 9%.
For `Cc1ccc2[nH]c(C(C)NC(=O)c3ccc4c(C#Cc5cncn5C)n[nH]c4c3)nc2c1` (stereo not shown), the inhibition at 50 µM was -7%.
On the same count and under the same terms, the result for `N#Cc1ccc(C#Cc2n[nH]c3ccccc23)cc1` reads 1%; that for `C(#CC1CCCC1)c1n[nH]c2ccccc12`, 3%.
Still for that read-out and setting: the result for `COC(=O)c1ccc2c(C#Cc3cncn3C)n[nH]c2c1` reads 4%.
On to `Cn1cncc1C#Cc1n[nH]c2cc(C(=O)NCc3ccccn3)ccc12`, for which the inhibition at 50 µM was -17%.
Consider `O=[N+]([O-])c1ccc2c(C#Cc3ccccc3)n[nH]c2c1`, for which the inhibition at 50 µM was -1%.
The same measure, in the same setting: the result for `COc1ccc2cc(C#Cc3n[nH]c4ccccc34)ccc2c1` reads 5%.
Still for that read-out and setting: for `C(#Cc1n[nH]c2ccccc12)c1ccncc1` the value was 30%; for `Cn1cncc1C#Cc1n[nH]c2ccccc12`, 46%.
The same measure, in the same setting: for `NCCCCCNC(=O)c1ccc(C#Cc2n[nH]c3ccccc23)cc1` the value was 3%; for `Cn1cncc1C#Cc1n[nH]c2cc(C(=O)NCc3cc4ccccc4[nH]3)ccc12`, 3%.
On to `Cn1cncc1C#Cc1n[nH]c2cc(C(=O)NCc3cccs3)ccc12`, for which the inhibition at 50 µM was -14%.
Same read-out and setting: the result for `Cn1cncc1C#Cc1n[nH]c2cc(C(=O)O)ccc12` reads 24%.
For `C(#Cc1n[nH]c2ccccc12)c1cccnc1`, the inhibition at 50 µM worked out at 34%.
The same measure, in the same setting: the result for `C(#Cc1n[nH]c2ccccc12)c1ccccn1` reads 13%; that for `FC(F)(F)c1cc(C#Cc2n[nH]c3ccccc23)cc(C(F)(F)F)c1`, -3%; that for `C(#CC1CC1)c1n[nH]c2ccccc12`, 2%.
On the same count and under the same terms, the result for `Cn1cncc1C#Cc1n[nH]c2cc(C(=O)NC34CC5CC(CC(C5)C3)C4)ccc12` reads -11%; that for `C(#Cc1n[nH]c2ncccc12)c1ccncc1`, 15%.
The same measure, in the same setting: for `C(#Cc1n[nH]c2ccccc12)c1ccccc1` the value was 6%; for `C(#Cc1n[nH]c2ccccc12)c1ccsc1`, 7%; for `Nc1ccc(C#Cc2n[nH]c3ccccc23)cc1`, 9%.
As to `C(#Cc1n[nH]c2ncccc12)c1ccccn1`, the inhibition at 50 µM was found to be 7%.
On the same count and under the same terms, for `Fc1cc(F)cc(C#Cc2n[nH]c3ccccc23)c1` the value was 6%; for `CC(C)(C)OC(=O)NCCCCCNC(=O)c1ccc(C#Cc2n[nH]c3ccccc23)cc1`, -6%.
